# US20230190887A1, “TARGETING G3BP AGGREGATION TO PREVENT NEURODEGENERATION” (priority 2019, published 2023)
# “Also recorded” adds a separate entry of the source. Read-outs that look alike come from different tables or passages of the source.
# Columns and labels:
# MN axons = format: cell-based, mouse
# HB9::GFP MN axons = format: cell-based, mouse
# [1] = test system: G3BP1 aggregates in E12.5 motor neurons; assay: Endogenous G3BP1 aggregates in MPP+-treated motor neurons; format: cell-based, mouse; conditions: 100 μM MPP+ alone vs control
# Method: Previous studies have shown that, exposure of midbrain neurons results in formation of stress granules. To test whether treatment of motor neurons with mitotoxin MPP+ results in the formation of stress granules the inventors stained the MPP+-treated neurons for G3BP1 protein.
# (A) Quantification of mitotoxin/neurotoxin MPP+-induced degeneration of DIV7 E12.5 motor neuron neurites after exposure of cultures to 100 μM MPP+ and either 10 μM 190-208 G3BP1 or 168-189 control peptide. As controls, neurons treated with solvents were used. (B) Representative images of G3BP1 (green) and NF-labeled (red) E12.5 motor neurons under control or after treatment with 100 μM MPP+ [scale bar=10 μm]. (C) distribution of sizes of endogenous G3BP1 aggregate per 100 μm neurite is shown as indicated bins from motor neurons cultures as treated in (B). (N≥80 neurites over three repetitions; by one-way ANOVA with Tukey HSD post-hoc). […] (D) Endogenous G3BP1 aggregate sizes per 100 μm neurite indicated as bins for motor neurons either untreated or treated with MPP+ alone or with addition of 10 μM 190-208 G3BP1 or 168-189 control peptide. […] (N≥90 over 3 cultures; by one-way ANOVA with Tukey HSD post-hoc)
# [2] = test system: G3BP1 aggregates in midbrain neurons; assay: Endogenous G3BP1 aggregates in MPP+-treated midbrain neurons; format: cell-based, rat; conditions: MPP+ alone
# Source text: Given that the G3BP1 190-208 peptide prevents degeneration induced by treatment with neurotoxins such as MPP+ and Aβ oligomer and decreases G3BP1 aggregates formed due MPP+ and Aβ treatment.
# (A) Size of endogenous G3BP1 aggregates per 100 μm of neurite is shown as indicated bins from midbrain cultures under control conditions and after treatment with MPP+alone or with 190-208 G3BP1 or 168-189 peptides. (B) Size distribution of endogenous G3BP1 aggregates per 100 μm of neurite is shown from cortical neurons treated with 1 μM Aβpeptide or with […] 190-208 G3BP1 or 168-189 control peptide. Non-treated neurons were used as a control. […] (N≥90 over 3 cultures; by two-way ANOVA with Tukey HSD post-hoc).
# [3] = test system: G3BP1, TIA1, FMRP, FXR, TDP43 and FUS-TLS aggregates in E18 midbrain neurons; assay: RNA binding protein aggregates along axons of MPP+-treated midbrain neurons; format: cell-based, rat; conditions: 100 μM MPP+ 6 hours
# Method: FIGS. 14A-14F show PD-causing MPP^+ increases RNA binding protein aggregation. Representative confocal images for G3BP1 (magenta), FMRP (green), FXR (red) and neurofilament immunoreactivity along axons for E18 midbrain neuron cultures (7 DIV)±100 μM MPP^+ for 6 hours are shown in FIG. 14A. […] Quantifications for colocalization of FMRP, FXR, TDP43, FUS-TLS and TIA1 with G3BP1 in axons of E18 midbrain neurons treated. as in FIG. 14A are shown as average Pearson's coefficient±SEM shown in FIG. 14E.
# [4] = test system: wild-type or ALS/FTD-associated mutant (P362L, A381T, E384K) TIA1-GFP in HEK cells; assay: TIA1-GFP aggregates in arsenite-treated HEK cells; format: cell-based
# Source text: The inventors tested whether the G3BP1 190-208 peptide would prevent the aggregation of granules formed by TIA1 and TDP43 mutant proteins associated with ALS and FTD. […] Next, we treated HEK cells expressing wild-type and or ALS/FTD-associated mutants (P362L, A381T, or E384K)TIA1, with arsenite a potent inducer of SG aggregation, in addition to either G3BP1 190-208 peptide or control G3BP1 168-189 peptide.
# FIG. 5: Cell permeable G3BP1 190-208 peptide decreases TIA1-GFP puncta formed due to expression of disease causing TIA1 mutants. (A) Representative images of HEK cells transfected with GFP-tagged wild-type or ALS/FTD-associated mutants (P362L, A381T, or E384K) TIA1. Arrows show TIA1-GFP puncta. (B) Quantification of the percentage of cells with TIA1-GFP puncta greater than 2 μm^2 area in transfected cells relative TIA1-WT-GFP expressing cells. Consistent with previous studies, ALS/FTD- associated TIA1 mutants show increased number of TIA1-GFP puncta as compared to WT-TIA1. (C) HEK cells expressing TIA1-GFP or ALS/FTD-associated mutants TIA1-P362L, TIA1-A381T, TIA1-E384K were treated with sodium arsenite (0.5 mM) for 30 minutes followed by treatment with either 10 μM 190-208 G3BP1 or 168-189 control peptide. The number of cells containing TIA1-GFP puncta were measured and results are reported relative to non-treated controls. Number of HEK cells with TIA1-GFP granules both for WT and ALS/FTD mutants decreased after treatment with 10 μM 190-208 G3BP1 as compared to the 168-189 control peptide treated cells. (N≥90 over 3 cultures; by two-way ANOVA with Tukey HSD post-hoc). Scale bar: 20 μm.
# [5] = test system: TIA1, G3BP1 and TDP43 granules in E12.5 motor neurons; assay: Stress granule protein granules in neurites of arsenite-treated motor neurons; format: cell-based, mouse
# Source text: To further evaluate whether mutant TIA1 and TDP43 protein aggregates are affected by G3BP1 190-208 peptide, the inventors expressed the mutant proteins in embryonic motor neurons and assessed granules formed in neurites with or without arsenite treatment either in the presence of G3BP1 190-208 or control 168-189 peptide.
# FIG. 6: Cell permeable G3BP1 190-208 peptide decreases granules formed by endogenous TIA1 and TDP43 and exogenous TDP43 and TIA1 mutants in motor neurons after sodium arsenite exposure. (A) Embryonic motor neurons isolated from E12.5 mouse embryos were exposed to sodium arsenite (0.5 mM) for 30 minutes and then treated with 10 μM 190- 208 or […] peptide. After fixation endogenous TIA1 was visualized by immunostaining. The number of TIA1 granules greater than 2 μm^2 per 100 μm of neurite were measured. (B) E12.5 motor neurons were treated as described in (A) and immunostaining was used to detect endogenous G3BP1 protein. The number of G3BP1 granules greater than 2 μm^2 per 100 μm of neurite were measured. […] (C) E12.5 motor neurons expressing TIA1-GFT or ALS/FTD-associated mutants TIA1-A381T, TIA1-E384K were treated with sodium arsenite (0.5 mM) for 30 minutes followed by treatment with either 10 μM 190-208 G3BP1 or 168-189 control peptide. The number of cells containing TIA1-GFP puncta were measured 2 μm^2 per 100 μm of neurite and results are reported relative to non-treated controls. The number of TIA1-GFP granules in neurites decreased for WT and ALS/FTD mutants after treatment with 190-208 G3BP1 as compared to the 168-189 control peptide treated cells. (I)) E12.5 motor neurons expressing flag-tagged wildtype TDP43 or ALS-associated mutants TDP43-M337V and TDP43-Q331.K were treated with sodium arsenite (0.5 mM) for 30 minutes followed by treatment with either 10 μM 190-208 G3BP1 or 168189 control peptide. Flag-TDP43 was detected by immunostaining using the anti-flag-antibody. The number of flag-TDP43 granules greater than 2 μm^2 were measured per 100 μm of neurite and the results are reported relative to non-treated controls. The number of Flag-TDP43 granules in neurites were decreased after treatment with 190-208 G3BP1 peptide as compared to the 168-189 control peptide in both WT and ALS/FTD mutants expressing cells. ([…] over 3 cultures; by two-way ANOVA with Tukey HSD post-hoc),
# DRG neurons = assay: Axon growth in dissociated DRG cultures; format: cell-based, rat; conditions: 10 μM Tat-fused peptide added to DRG cultures immediately after plating
# Method: Cell culture. For primary neuronal cultures, L4-5 DRG were harvested in Hybernate-A medium (BrainBits) and then dissociated as described. After centrifugation and washing in DMEM/F12 (Life Technologies), cells were resuspended in DMEM/F12, 1×N1 supplement (Sigma), 10% fetal bovine serum (Hyclone), and 10 μM cytosine arabinoside (Sigma). Dissociated DRGs were plated immediately on laminin/poly-L-lysine-coated coverslips or transfected (see below) and then plated on coated coverslips.
# […] Neurite outgrowth was assessed 24 h after addition of peptides. For the cortical cultures, 10 μM peptide was applied to the axonal compartment at 3 d in vitro (DIV) and axonal growth was assessed at 6 DIV. For iMotor neurons, 20 μM peptides were immediately added and neurite growth was assessed 24 h later.
# For neurite outgrowth, images from 60 h DRG cultures were analyzed for neurite outgrowth using WIS-Neuromath. Axon morphology was visualized using GFP and/or NF immunofluorescence as described. Differentiated hiPSC neuron image acquisition and neurite length quantification was performed using Arrayscan XTI (Thermo Fisher).
# [6] = test system: G3BP1-mCherry aggregates in DRG axons; assay: Live cell imaging of G3BP1-mCherry granules; format: cell-based, rat; conditions: 10 μM peptide, 15 min
# Method: Live cell imaging for G3BP1-mCherry granules. DRG neurons were transfected with G3BP1-mCherry, and 36 h later distal axons were imaged using Leica SP8X confocal microscope with environmental chamber maintained at 37° C., 5% CO2 (with 63×/1.4 NA oil immersion objective). G3BP1-mCherry signals were imaged as single optical planes in the axon shaft every 2 s for 100 frames (at 540 nm excitation and 23% white light laser power; 565-597 nm emission). To study the effect of the G3BP1 190-208 or 168-189 peptide, 10 μM FITC-conjugated peptide was added to the media and 15 min later imaging was continued.
# For quantitation of G3BP1-mCherry aggregates density and size, a 100 μm of the axon shaft was considered (≥200 μm from cell body). Thresholding was applied to acquired image sequences using ImageJ to generate binary masks.
# ImageJ particle analyzer was used for analysis. G3BP1 aggregates with area≥1 μm^2 were considered as SG-like structures. For analyzing the G3BP1 aggregate velocity, ImageJ Trackmate plug-in was used.
# [7] = molecular target: DCP1A, endogenous rat protein in axons of cultured adult DRG neurons (rat) (UniProt D4AE80); assay: proximity ligation assay in axons of fixed rat DRG neurons
# [8] = molecular target: HuR (ELAVL1), endogenous rat protein in axons of cultured adult DRG neurons (rat) (UniProt B5DF91); assay: as above
# [9] = applied exclusively in axons, NaAsO2 250 μM, Anisomycin 40 μM, Cycloheximide 150 μM
# [10] = local axonal administration, Anisomycin 40 μM, Cycloheximide 150 μM, NaAsO2 250 μM
# Sequence of HuR (ELAVL1), endogenous rat protein in axons of cultured adult DRG neurons (rat) (B5DF91 2-326): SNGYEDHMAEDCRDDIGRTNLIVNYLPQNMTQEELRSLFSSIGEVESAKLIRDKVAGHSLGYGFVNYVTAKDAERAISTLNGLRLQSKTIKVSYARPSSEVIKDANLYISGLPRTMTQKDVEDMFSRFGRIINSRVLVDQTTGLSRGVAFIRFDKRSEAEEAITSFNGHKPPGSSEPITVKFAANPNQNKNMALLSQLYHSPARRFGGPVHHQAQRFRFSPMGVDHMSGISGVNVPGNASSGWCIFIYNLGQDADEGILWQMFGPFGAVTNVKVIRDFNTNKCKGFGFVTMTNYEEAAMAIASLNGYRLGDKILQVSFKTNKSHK
compound,measurement,setting,value
COc1ccc(C[C@H]2NC[C@H](O)[C@H]2OC(C)=O)cc1 [Anisomycin],axonal translation (OPP puncta),MN axons; [9],major decrease in axonal translation
same,mitochondrial membrane potential (TMRE),HB9::GFP MN axons; [10],notable reduction in mitochondrial membrane potential
C[C@@H]1C[C@@H]([C@H](O)CC2CC(=O)NC(=O)C2)C(=O)[C@@H](C)C1 [Cycloheximide],axonal translation (OPP puncta),MN axons; [9],major decrease in axonal translation
same,mitochondrial membrane potential (TMRE),HB9::GFP MN axons; [10],notable reduction in mitochondrial membrane potential
"C[n+]1ccc(-c2ccccc2)cc1 [MPP+, 1-methyl-4-phenylpyridinium, reference compound]",endogenous G3BP1 aggregates,[1],increase in G3BP1 aggregates; also recorded: formation of larger G3BP1 granules
same,endogenous G3BP1 aggregates,[2],increase in endogenous G3BP1 aggregates
same,"TIA1, FMRP, FXR, TDP43 and FUS-TLS colocalization with G3BP1",[3],significant increase
same,"aggregate sizes of G3BP1, TIA1, FMRP, FXR, TDP43 and FUS-TLS along axons",[3],significantly increases the aggregate sizes
same,overall levels of these proteins,[3],without any change in overall levels
"DDSGTFYDQTVSNDLEEHLEEP-YGNKKNNQNNN [168-189 peptide, reference compound]",size of TIA1 aggregates,"[4]; sodium arsenite 0.5 mM 30 minutes, then 10 μM peptide, WT and mutant TIA1",no such change in aggregate size
same,number of large TIA1-GFP granules (>2 μm^2) in neurites,"[5]; WT and mutant TIA1-GFP, sodium arsenite 0.5 mM 30 minutes, then 10 μM peptide",no such effect
same,axon length,DRG neurons,lacked activity
same,density of axonal G3BP1-mCherry aggregates along 100 μm axon,[6],no change in SG density
same,size of G3BP1-mCherry aggregates (SG-like structures),[6],modest but insignificant decrease in SG size
"G3BP1 (Ras GAP SH3 domain binding protein 1), endogenous rat protein in axons of cultured adult DRG neurons (from UniProt D3ZYS7 1-465)",PLA signals per area,[7],0.027 signals/m^2
same,PLA signals per area,[8],0.038
"sodium arsenite [NaAsO2, reference compound]",size of TIA1 aggregates,"[4]; sodium arsenite 0.5 mM alone, WT and mutants",increases size of TIA1 aggregates
same,size of endogenous TIA1 and G3BP1 aggregates,[5]; arsenite alone,increase in the size of endogenous TIA1 and G3BP1 aggregates
same,number of larger TIA1-GFP granules (>2 μm^2),"[5]; arsenite alone, WT and mutant TIA1-GFP",increase in the number of larger granules
same,number of large flag-TDP43 aggregates (>2 μm^2),"[5]; arsenite alone, WT and mutant flag-TDP43",increased number of large flag-TDP43 aggregates
same,axonal translation (OPP puncta),MN axons,major decrease in axonal translation
same,mitochondrial membrane potential (TMRE),HB9::GFP MN axons,notable reduction in mitochondrial membrane potential
